A word on the IC50: it is the concentration needed to halve the response being measured.

For experiment [1], the target named is T1, Hedgehog acyltransferase (Hhat) (Homo sapiens, UniProt Q5VTY9). Description: YnPal palmitoylation tagging in HEK-293 Shh+ cells, spike-in SILAC quantitative proteomics (Western blot TC50 […]). Type of experiment: cell-based. (In general: Immunoblotting shows a protein as a band on a membrane.)
In experiment [2] the target is T1, Hedgehog acyltransferase (Hhat). The experiment in a line: YnPal palmitoylation profiling in cells by quantitative proteomics. Type of experiment: cell-based.

T1 sequence (Q5VTY9 whole entry): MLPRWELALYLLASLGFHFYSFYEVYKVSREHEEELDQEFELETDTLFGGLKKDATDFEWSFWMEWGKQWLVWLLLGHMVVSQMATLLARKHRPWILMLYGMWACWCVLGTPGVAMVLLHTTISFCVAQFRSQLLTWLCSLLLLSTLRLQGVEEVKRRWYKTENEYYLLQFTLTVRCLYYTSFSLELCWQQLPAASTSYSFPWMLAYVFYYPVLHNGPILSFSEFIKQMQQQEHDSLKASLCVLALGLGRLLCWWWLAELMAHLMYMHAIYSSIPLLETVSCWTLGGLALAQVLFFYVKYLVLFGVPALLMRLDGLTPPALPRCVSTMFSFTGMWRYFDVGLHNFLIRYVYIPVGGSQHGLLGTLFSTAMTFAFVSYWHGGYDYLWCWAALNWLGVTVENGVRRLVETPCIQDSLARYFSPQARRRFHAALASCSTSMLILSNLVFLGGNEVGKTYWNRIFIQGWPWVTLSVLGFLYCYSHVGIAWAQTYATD

In turn, `CCC(C)CNCC(=O)N1CCc2sccc2C1c1cccc(C)n1` (racemic) [RUSKI-201] displayed an IC50 in experiment [1] of 730 ± 90 nM.

As for `C=CCNCC(=O)N1CCc2sccc2C1COc1ccc(Cl)cc1` (centres unmarked) [RUSKI-41], the “YnPal palmitoylation profiling in cells by quantitative proteomics” value in experiment [2] was “RUSKI-41 also inhibited only Hh palmitoylation (Supporting Information Figure S6, Table S2)”.
